Laboratory results as given in patent publication US12473301B2, “Isoquinoline compounds for the treatment of cancer” (Genentech, Inc., priority 2018, dated 2025).

Target: HPK1 (Homo sapiens (Human), UniProt Q92918, S171E/T165E)
Experiment: HPK1-FL HTRF Enzymatic Assay ("HTRF")
Type: biochemical
Conditions: HPK full length, ATP 1 mM
Procedure: HPK1-FL HTRF Enzymatic Assay (“HTRF”)
HPK-FL enzyme phosphorylates Biotin-SLP-76 substrate in the presence of ATP at 1 mM and varying concentrations of test compound. Product is detected by FRET using Eu-anti-pSLP76 Ab and SA-XL665. Also see www.cisbio.com/HTRF for additional HTRF technology information.
Instrumentation: Echo555 compound dispenser; Agilent Bravo; Perkin Elmer Envision.
To a 384 well Proxiplate with 80 nL compound or DMSO spotted on was added 4 μl/well kinase mix. The mixture was preincubated for 30 minutes and then 4 μl/well substrate mix was added. The solution was incubated for 60 min and then 4 μl/well detection mix was added. The solution was incubated for another 60 min. The plates were then loaded onto a
Perkin Elmer Envision and the TR-FRET signal was measured at […] and 665 nm. A ratio of 665/620 was used to calculate the % activity at each concentration of compound.

Sequence of HPK1 (Q92918 whole entry T165E/S171E): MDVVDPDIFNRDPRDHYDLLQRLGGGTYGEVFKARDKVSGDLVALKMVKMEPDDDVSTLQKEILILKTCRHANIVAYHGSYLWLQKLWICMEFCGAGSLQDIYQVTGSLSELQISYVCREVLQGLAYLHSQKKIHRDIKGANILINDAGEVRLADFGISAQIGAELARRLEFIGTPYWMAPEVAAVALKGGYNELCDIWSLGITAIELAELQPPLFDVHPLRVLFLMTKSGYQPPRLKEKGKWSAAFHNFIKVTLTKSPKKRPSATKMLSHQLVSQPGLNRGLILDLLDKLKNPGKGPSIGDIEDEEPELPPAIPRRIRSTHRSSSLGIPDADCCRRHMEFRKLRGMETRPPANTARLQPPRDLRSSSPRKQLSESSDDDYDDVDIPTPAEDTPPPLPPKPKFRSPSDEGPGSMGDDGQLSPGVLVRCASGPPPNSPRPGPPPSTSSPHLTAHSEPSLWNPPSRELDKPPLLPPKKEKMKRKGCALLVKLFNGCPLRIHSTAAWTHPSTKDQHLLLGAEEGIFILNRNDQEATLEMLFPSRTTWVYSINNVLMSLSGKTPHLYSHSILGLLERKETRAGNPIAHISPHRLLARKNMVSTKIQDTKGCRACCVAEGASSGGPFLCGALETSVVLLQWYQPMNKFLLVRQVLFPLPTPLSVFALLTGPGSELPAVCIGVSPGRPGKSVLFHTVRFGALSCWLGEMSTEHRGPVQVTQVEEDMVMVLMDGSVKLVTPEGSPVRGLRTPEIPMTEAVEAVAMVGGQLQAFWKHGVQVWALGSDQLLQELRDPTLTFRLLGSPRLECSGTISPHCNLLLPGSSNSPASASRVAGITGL

Question: For `Cc1c(-c2cc3cc(NC(=O)OCC4(F)CCNC4)ncc3cc2F)cnc2c1NCCO2` (racemic) [Compound 106, (3-Fluoropyrrolidin-3-yl)methyl (7-fluoro-6-(8-methyl-2,3-dihydro-1H-pyrido[2,3-b][1,4]oxazin-7-yl)isoquinolin-3-yl)carbamate], which Ki is on record?
Answer: Its Ki is 2.4 nM.

Question: For `Cc1c(-c2cc3cc(NC(=O)OCC4CCNC4)ncc3cc2F)cnc2c1NCCO2` (racemic) [Compound 107, Pyrrolidin-3-ylmethyl (7-fluoro-6-(8-methyl-2,3-dihydro-1H-pyrido[2,3-b][1,4]oxazin-7-yl)isoquinolin-3-yl)carbamate], which Ki is on record?
Answer: Its Ki is 2.1 nM.

Question: For `Cc1c(-c2cc3cc(NC(=O)OC4COC5(CCNC5)C4)ncc3cc2F)cnc2c1NCCO2` (racemic) [Compound 108, 1-Oxa-7-azaspiro[4.4]nonan-3-yl (7-fluoro-6-(8-methyl-2,3-dihydro-1H-pyrido[2,3-b][1,4]oxazin-7-yl)isoquinolin-3-yl)carbamate], which Ki is on record?
Answer: The Ki was 4 nM.

Question: With `Cc1c(-c2cc3cc(NC(=O)OCC(C)N)ncc3cc2F)cnc2c1NCCO2` (racemic) [Compound 110, 2-Aminopropyl (7-fluoro-6-(8-methyl-2,3-dihydro-1H-pyrido[2,3-b][1,4]oxazin-7-yl)isoquinolin-3-yl)carbamate] as the compound, how does the Ki read?
Answer: The Ki was 29 nM.

Question: For `COC(C)CCOC(=O)Nc1cc2cc(-c3cnc4c(c3C)NCCO4)c(F)cc2cn1` (racemic) [Compound 114, 3-Methoxybutyl (7-fluoro-6-(8-methyl-2,3-dihydro-1H-pyrido[2,3-b][1,4]oxazin-7-yl)isoquinolin-3-yl)carbamate], which Ki is on record?
Answer: Its Ki is 1.5 nM.

Question: `Cc1c(-c2cc3cc(NC(=O)OCC4CCCCO4)ncc3cc2F)cnc2c1NCCO2` (racemic) [Compound 116, (Tetrahydro-2H-pyran-2-yl)methyl (7-fluoro-6-(8-methyl-2,3-dihydro-1H-pyrido[2,3-b][1,4]oxazin-7-yl)isoquinolin-3-yl)carbamate] was tested. Which Ki did it give?
Answer: The Ki was 7.5 nM.

Question: Which Ki does the source give for `Cc1c(-c2cc3cc(NC(=O)OCC45CC4CCN5)ncc3cc2F)cnc2c1NCCO2` (racemic) [Compound 122, (2-Azabicyclo[3.1.0]hexan-1-yl)methyl (7-fluoro-6-(8-methyl-2,3-dihydro-1H-pyrido[2,3-b][1,4]oxazin-7-yl)isoquinolin-3-yl)carbamate] here?
Answer: Its Ki is 24 nM.

Question: With `Cc1c(-c2cc3cc(NC(=O)OC4CCC45CCNC5)ncc3cc2F)cnc2c1NCCO2` (racemic) [Compound 123, 6-Azaspiro[3.4]octan-1-yl (7-fluoro-6-(8-methyl-2,3-dihydro-1H-pyrido[2,3-b][1,4]oxazin-7-yl)isoquinolin-3-yl)carbamate] as the compound, how does the Ki read?
Answer: Its Ki is 7.5 nM.

Question: `Cc1c(-c2cc3cc(NC(=O)O[C@H]4CCCC[C@@H]4C#N)ncc3c(Cl)c2F)cnc2c1NCCO2` (single isomer, unassigned) [Compound 126a] was tested. Which Ki did it give?
Answer: The Ki was 492 nM.

Question: For `Cc1c(-c2cc3cc(NC(=O)O[C@@H]4CCCC[C@H]4C#N)ncc3c(Cl)c2F)cnc2c1NCCO2` (single isomer, unassigned) [Compound 126b], which Ki is on record?
Answer: Its Ki is 0.945 nM.

Question: Which Ki does the source give for `Cc1c(-c2cc3cc(NC(=O)O[C@@H]4CCC[C@H]4C#N)ncc3c(Cl)c2F)cnc2c1NCCO2` (single isomer, unassigned) [Compound 127a] here?
Answer: Its Ki is 0.805 nM.

Question: With `Cc1c(-c2cc3cc(NC(=O)O[C@H]4CCC[C@@H]4C#N)ncc3c(Cl)c2F)cnc2c1NCCO2` (single isomer, unassigned) [Compound 127b] as the compound, how does the Ki read?
Answer: The Ki was 3.75 nM.

Question: Which Ki does the source give for `Cc1c(-c2cc3cc(NC(=O)O[C@@H]4CCC[C@H]4C#N)ncc3cc2F)cnc2c1NCCO2` (single isomer, unassigned) [Compound 128a] here?
Answer: Its Ki is 2.5 nM.

Question: Which Ki does the source give for `Cc1c(-c2cc3cc(NC(=O)O[C@H]4CCC[C@@H]4C#N)ncc3cc2F)cnc2c1NCCO2` (single isomer, unassigned) [Compound 128b] here?
Answer: The Ki was 0.78 nM.

Question: How did the Ki turn out when `Cc1c(-c2cc3cc(NC(=O)NC(C)c4cnn(C)c4)ncc3cc2F)cnc2c1NCCO2` (single isomer, unassigned) [Compound 201a] was run?
Answer: Its Ki is 0.95 nM.

Question: With `Cc1c(-c2cc3cc(NC(=O)NC(C)c4cnn(C)c4)ncc3cc2F)cnc2c1NCCO2` (single isomer, unassigned) [Compound 201b] as the compound, how does the Ki read?
Answer: The Ki was 10 nM.

Question: How did the Ki turn out when `Cc1c(-c2cc3cc(NC(=O)NC(C)CC#N)ncc3cc2F)cnc2c1NCCO2` (single isomer, unassigned) [Compound 203a] was run?
Answer: The Ki was 4 nM.

Question: `Cc1c(-c2cc3cc(NC(=O)NC(C)CC#N)ncc3cc2F)cnc2c1NCCO2` (single isomer, unassigned) [Compound 203b] was tested. Which Ki did it give?
Answer: The Ki was 1.1 nM.

Question: Which Ki does the source give for `Cc1c(-c2cc3cc(NC(=O)NC4CCOC4)ncc3cc2F)cnc2c1NCCO2` (single isomer, unassigned) [Compound 206a] here?
Answer: Its Ki is 0.88 nM.

Question: How did the Ki turn out when `Cc1c(-c2cc3cc(NC(=O)NC4CCOC4)ncc3cc2F)cnc2c1NCCO2` (single isomer, unassigned) [Compound 206b] was run?
Answer: Its Ki is 2.5 nM.

Question: How did the Ki turn out when `CC[C@@H]1[C@@H](C(=O)Nc2cc3cc(-c4cnc5c(c4C)NCCO5)c(F)cc3cn2)[C@@H]1c1cnn(C)c1` (single isomer, unassigned) [Compound 301a] was run?
Answer: Its Ki is 0.9 nM.

Question: How did the Ki turn out when `CC[C@H]1[C@H](C(=O)Nc2cc3cc(-c4cnc5c(c4C)NCCO5)c(F)cc3cn2)[C@H]1c1cnn(C)c1` (single isomer, unassigned) [Compound 301b] was run?
Answer: Its Ki is 8 nM.

Question: For `CC[C@H]1[C@@H](C(=O)Nc2cc3cc(-c4cnc5c(c4C)NCCO5)c(F)cc3cn2)[C@@H]1c1cnn(C)c1` (single isomer, unassigned) [Compound 301d], which Ki is on record?
Answer: Its Ki is 1.8 nM.

Question: `Cc1c(-c2cc3cc(NC(=O)OCC4CC4)ncc3cc2F)cnc2c1NCCO2` [Compound 101, Cyclopropylmethyl (7-fluoro-6-(8-methyl-2,3-dihydro-1H-pyrido[2,3-b][1,4]oxazin-7-yl)isoquinolin-3-yl)carbamate] was tested. Which Ki did it give?
Answer: Its Ki is 2.7 nM.

Question: For `Cc1c(N)cncc1-c1cc2cc(NC(=O)OCC3CC3)ncc2cc1F` [Compound 102, Cyclopropylmethyl (6-(5-amino-4-methylpyridin-3-yl)-7-fluoroisoquinolin-3-yl)carbamate], which Ki is on record?
Answer: Its Ki is 45 nM.

Question: With `Cc1c(-c2cc3cc(NC(=O)OC4CCOCC4)ncc3cc2F)cnc2c1NCCO2` [Compound 103, Tetrahydro-2H-pyran-4-yl (7-fluoro-6-(8-methyl-2,3-dihydro-1H-pyrido[2,3-b][1,4]oxazin-7-yl)isoquinolin-3-yl)carbamate] as the compound, how does the Ki read?
Answer: Its Ki is 5 nM.

Question: With `CC(=O)N1CC(OC(=O)Nc2cc3cc(-c4cnc5c(c4C)NCCO5)c(F)cc3cn2)C1` [Compound 104, 1-Acetylazetidin-3-yl (7-fluoro-6-(8-methyl-2,3-dihydro-1H-pyrido[2,3-b][1,4]oxazin-7-yl)isoquinolin-3-yl)carbamate] as the compound, how does the Ki read?
Answer: Its Ki is 2.9 nM.

Question: Which Ki does the source give for `CNC(=O)N1CC(OC(=O)Nc2cc3cc(-c4cnc5c(c4C)NCCO5)c(F)cc3cn2)C1` [Compound 105, 1-(Methylcarbamoyl)azetidin-3-yl (7-fluoro-6-(8-methyl-2,3-dihydro-1H-pyrido[2,3-b][1,4]oxazin-7-yl)isoquinolin-3-yl)carbamate] here?
Answer: The Ki was 0.91 nM.

Question: With `Cc1c(-c2cc3cc(NC(=O)OC[C@H]4CCCN4)ncc3cc2F)cnc2c1NCCO2` [Compound 109a, (R)-Pyrrolidin-2-ylmethyl (7-fluoro-6-(8-methyl-2,3-dihydro-1H-pyrido[2,3-b][1,4]oxazin-7-yl)isoquinolin-3-yl)carbamate] as the compound, how does the Ki read?
Answer: The Ki was 25 nM.

Question: `Cc1c(-c2cc3cc(NC(=O)OCC4(F)CCNCC4)ncc3cc2F)cnc2c1NCCO2` [Compound 111, (4-Fluoropiperidin-4-yl)methyl (7-fluoro-6-(8-methyl-2,3-dihydro-1H-pyrido[2,3-b][1,4]oxazin-7-yl)isoquinolin-3-yl)carbamate] was tested. Which Ki did it give?
Answer: The Ki was 4 nM.
